Here are results for twelve compounds from PubChem BioAssay AID858 (Vanderbilt High Throughput Screening Facility, 2007).

The source made the active and inactive calls.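 The calls were made as follows: active = at least two of three replicate dose series yielding a converging curve fit, whether well or thinly supported; inactive = the rest.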

The assay deals with D(1A) dopamine receptor (Homo sapiens) (UniProt P21728). The assay is described as follows: concentration-dependent D1 reporter signal change – cell-based, CRE-luciferase, HEK293, dopamine EC30, D1 allosteric modulator project, dose response (AID 858).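 Also: HEK 293 cells bearing human D1 receptor stimulated by dopamine at its EC30; luciferase light from a cAMP response element reporter gene.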
D(1A) dopamine receptor (Homo sapiens), sequence (P21728 whole entry, looked up): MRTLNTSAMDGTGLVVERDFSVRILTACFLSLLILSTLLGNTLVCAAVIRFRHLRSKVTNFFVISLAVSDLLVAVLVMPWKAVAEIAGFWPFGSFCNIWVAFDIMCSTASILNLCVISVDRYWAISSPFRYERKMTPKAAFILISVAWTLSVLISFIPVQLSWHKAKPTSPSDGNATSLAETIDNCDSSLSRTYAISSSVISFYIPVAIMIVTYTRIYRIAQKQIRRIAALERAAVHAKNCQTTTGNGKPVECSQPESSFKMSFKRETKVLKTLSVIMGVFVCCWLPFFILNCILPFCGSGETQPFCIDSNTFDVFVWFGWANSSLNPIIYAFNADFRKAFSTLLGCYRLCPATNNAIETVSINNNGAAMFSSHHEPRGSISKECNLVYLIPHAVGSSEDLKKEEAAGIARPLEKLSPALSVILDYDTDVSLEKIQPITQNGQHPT
For `O=S(=O)(Nc1cc(Cl)ccc1N1CCCCC1)c1cccs1`, the result was inactive.

Turning to `CCOC(=O)NCCc1ccc(OC)cc1`, the outcome was inactive.

On to `CCOC(=O)c1oc2ccc(Br)cc2c1NC(=O)CN1CCN(C)CC1`, for which the result was inactive.

Turning to `N#Cc1nc(-c2ccc(F)cc2)oc1NCc1ccccc1`, the result was inactive.

Take `Clc1ccc(-n2nnnc2-c2ccccc2)cc1`: the outcome was inactive.

As usually defined, the EC50 is the concentration at which the effect is half-maximal. In the case of `COC(=O)c1ccc(CSc2nc3c(cnn3-c3ccc(F)cc3)c(=O)[nH]2)o1`, the concentration for a half-maximal effect (EC50) was 2.49 µM.

For the compound `CC(C)c1ccc(-c2nc(N3CCCCC3)[nH]c(=O)c2C#N)cc1`, the concentration giving a half-maximal response (EC50) was 1.75 µM.

For the compound `CCCn1c(SCC(=O)Nc2sc(C)c(C)c2C(=O)OCC)nc2c1c(=O)n(C)c(=O)n2C`, the result was inactive.

As for `Cc1ccc(-c2nc3ncccn3c2NC(=O)C2CC2)cc1`, the result was inactive.

As to `COc1cccc(N2C(=O)C3ON(c4ccccc4)C(c4cccs4)C3C2=O)c1` (configuration not stated), the result was inactive.

Regarding `COc1ccc(Cc2nnc(NC(=O)c3c(-c4ccccc4)noc3C)s2)cc1`, the outcome was inactive.

`c1ccc(Nc2nc3ccccc3n3cnnc23)cc1`: the result was inactive.
